Laboratory results published in patent US11306361B2, “Pathology prognosis method” (CENTRE NATIONAL DE LA RECHERCHE SCIENTIFIQUE, priority 2015, dated 2022).
Numbered stars: 1 amine (or outer) side, 2 acyl side, 3 side chain; on linkers, the order of the positions; unused ones are H or OH. Bridge positions count the residues as written; N and C are the ends. Square brackets hold non-standard residues; d marks the D form. Peptide text beside a SMILES is read from it. I, II: the chains in the order shown. Actinocin(9to1) = Cc1c2oc3c(C)ccc(C(=O)[*:1])c3nc-2c(C(=O)[*:2])c(N)c1=O; NMeV = CN[C@H](C(=O)O)C(C)C; Sar = CNCC(=O)O

Columns and labels:
[1] = test system: RAS or ErbB2 cancer cells; experiment: Western blot of cleaved PARP in tumor cells; format: cell-based, mouse; settings: after treatment with 5-FU; limited by Cyclin D1; FIG. 27
Text: (§1) The antibodies used are the following: anti-HA (HA.11 Clone 16B12, Eurogentec or Anti-HA EPITOPE TAG-600-401-384, Tebu-bio or Hemagglutinin (HA) Rabbit Polyclonal Antibody, Life Technologies), anti-Cyclin D1 (sc-450, Santa Cruz or MS-210-PABX (AB1), Fisher Scientific or RB-010-PABX (AB3), Fisher scientific), anti-RB total (sc-74562, Santa Cruz), anti-Phospho-RB (Ser780) (9307, Cell signaling), anti-Actin (ab6276, Abcam), anti-Tubulin (T9026, Sigma-Aldrich), anti-Ras (BD610002, BD Biosciences), anti-FLAG (F7425, Sigma-Aldrich), anti-cleaved PARP (ab32064, Abcam), anti-VASA (ab13840, Abcam), anti-Thyrosine Hydroxylase (MAB318, Merck Millipore). The secondary antibodies used are coupled with peroxidase (signaling), and the detection of the complexes is done using the enhanced chemiluminescence detection kit (Millipore).

[2] = test system: MEF cells transformed with RAS-G12V/DNP53 and MMTV-ErbB2 tumor cells; experiment: Measurement of cell death (apoptosis) in transformed tumor cells; format: cell-based, mouse; settings: for apoptosis rates versus quantity of Cyclin D1: MEFs transformed with P53 negative dominant and RAS G12V, null, low or high Cyclin D1, FIG. 23
Protocol: (§2) Cell death is induced by exposure to actinomycin D A9415, Sigma, for 6 h, 5-Fluoro uracil (Fluorouracil Winthrop, Sanofi-Aventis) for 24 h, or ethanol (20821.330, VWR) for 6 h and inhibited by exposure to Q-VD-Oph (SML0063, Sigma).
(§3) The cells are washed twice in PBS 1×, unstuck with trypsin and reacted in a marking buffer (10 mM of Hepes pH=7.4, sodium chloride 150 mM, KCl 5 mM, MgCl2 1 mM, CaCl2 1.8 mM). Then the cells were marked with […]-fluorescein isothiocyanate (BD Biosciences) according to the manufacturer's instructions in 0.5 μg/mL of propidium iodide (PI; Sigma-Aldrich P-4170). After 15 min. of incubation in the dark, the cells are analyzed by flux cytometry. The living cells are Annexin V and PI double negatives and the apoptotic cells are positive for Annexin V and negative for PI.

dopaminergic neurons = experiment: 6-OHDA lesions, survival of mice; format: in vivo, mouse; settings: FIG. 9
Protocol: The mice were anesthetized with a mixture of ketamine (Imalgene 500, 50 mg/mL, Merial), 0.9% saline solution (weight/vol) and xylazine (Rompun 2%, […], Bayer) (2:2:1, i.p., 0.1 mL/30 g) and mounted on a stereotaxic apparatus. The 6-OHDA-HCl (Sigma) was dissolved in 0.02% ascorbic acid in a saline solution at a concentration of 3 μg of 6-OHDA/μL. Each mouse received two unilateral injections of 6-OHDA (2 μL/injection) in the right dorsal striatum, according to the following coordinates (in mm): anteroposterior +1, mediolateral −2.1, dorsal ventral −3.1 and anteroposterior +0.3, mediolateral −2.3, and dorsal ventral −3.1. The animals are then released and received a daily injection of glucose solution (50 mg/mL, subcutaneous).

male germinal cells = experiment: Methoxyacetic acid treatment, mouse testicles; format: in vivo
Protocol: The mice were sacrificed 14 hours after treatment, for the postmortem analyses.
as §1

[3] = test system: MEFs transformed with the mouse T antigen; experiment: Apoptosis and PARP cleavage in cell lines immortalized by the T antigen; format: cell-based; settings: FIG. 15; for induced apoptosis as a function of Cyclin D1 level: T antigen immortalized cells, wild vs Ntag/Ntag vs −/−; for cleavage of the PARP: cells with low Cyclin D1 level
Text: as §1, §2, §3

substantia nigra = experiment: Methamphetamine model of dopaminergic neurons in mice
Protocol: The methamphetamine was dissolved in a saline solution at 0.9% (weight/volume) sodium chloride, and injected at a rate of 10 mL/Kg. Several doses of methamphetamine (3 doses of 5 mg/kg at 3 h intervals) were injected intraperitoneally, the first dose being injected at noon. The control mice were treated with the saline solution alone. The mice were sacrificed 24 hours after treatment, for the postmortem analyses.
The mouse organs were washed with PBS 1× at 37° C. and lysed in HTRF buffer (Tris 10 mM, EDTA 1 mM, 0.05% NP-40) using a cell homogenizer. After centrifugation at 16000 g for 5 min., the samples were normalized by adjusting the total quantity of DNA (nanodrop, Thermo Scientific) at 500 ng/mL.

[4] = mice expressing N-terminal tagged Cyclin D1 relative to wild mice, intraperitoneal injection

Q: For `O=c1[nH]cc(F)c(=O)[nH]1` [5-FU, 5-fluorouracil], which “levels of cleaved PARP” value [1] is on record?
A: increase

Q: What about the “apoptosis rates versus quantity of Cyclin D1” value [2] of the same compound?
A: the quantity of Cyclin D1 correlates with the decrease in the apoptosis rates

Q: Which “survival of wild mice” value (dopaminergic neurons; CCND1+/+ mice, intrastriatal injection) does the source give for `NCCc1cc(O)c(O)cc1O` [6-OHDA, 6-hydroxy dopamine] here?
A: survive treatment

Q: What about the “survival of mice expressing N-terminal tagged Cyclin D1” value (dopaminergic neurons; mice expressing little Cyclin D1, intrastriatal injection) of the same compound?
A: die several days after

Q: What does the source list for `COCC(=O)O` [MAA, methoxyacetic acid]?
A: Cyclin D1 in testicles (HTRF) (male germinal cells; 14 hours after intraperitoneal injection at 150 mg/kg, FIG. 13): decrease; cleaved PARP rate in testicles (male germinal cells; [4]): increase; germinal cell marker (Vasa) in testicles (male germinal cells; [4]): massive loss

Q: `CC(C)[C@H](NC(=O)c1ccc2ccccc2n1)C(=O)N[C@@H](CC(=O)O)C(=O)COc1c(F)cccc1F` [Q-VD-Oph] was tested. Which “apoptosis induced by 5-FU or ethanol” value ([2]; RAS and ErbB2 lines, Q-VD-Oph 20 μM, FIGS. 24 and 25) did it give?
A: shunts the apoptosis

Q: Which results are given for `Cc1c2oc3c(C)ccc(C(=O)N[C@@H]4C(=O)N[C@H](C(C)C)C(=O)N5CCC[C@H]5C(=O)N(C)CC(=O)N(C)[C@@H](C(C)C)C(=O)O[C@@H]4C)c3nc-2c(C(=O)N[C@@H]2C(=O)N[C@H](C(C)C)C(=O)N3CCC[C@H]3C(=O)N(C)CC(=O)N(C)[C@@H](C(C)C)C(=O)O[C@@H]2C)c(N)c1=O` [actinomycin D] (I: T[dV]P[Sar][NMeV] / II: T[dV]P[Sar][NMeV]; ester I:1-I:C, II:1-II:C; linker I:N-II:N via Actinocin(9to1))?
A: induced apoptosis as a function of Cyclin D1 level [3]: increases with a low Cyclin D1 level; cleavage of the PARP [3]: strong cleavage of the PARP; apoptosis rates versus quantity of Cyclin D1 [2]: the quantity of Cyclin D1 correlates with the decrease in the apoptosis rates

Q: What does the source list for `CCO` [ethanol]?
A: induced apoptosis as a function of Cyclin D1 level [3]: increases with a low Cyclin D1 level; cleavage of the PARP [3]: strong cleavage of the PARP

Q: Which results are given for `CN[C@@H](C)Cc1ccccc1` [methamphetamine]?
A: quantity of Cyclin D1 in the substantia nigra (HTRF) (substantia nigra; CCND1Ntag/Ntag mice, 24 hours after intraperitoneal injection, FIG. 8): decreases; cerebral lesions (substantia nigra; animals expressing little Cyclin D1, intraperitoneal 5 mg/kg): increase in cerebral lesions
